Measured values reported in patent US20140357560A1, “PTH-CONTAINING THERAPEUTIC/PROPHYLACTIC AGENT FOR OSTEOPOROSIS, CHARACTERIZED IN THAT PTH IS ADMINISTERED ONCE A WEEK IN A UNIT DOSE OF 100 TO 200 UNITS” (ASAHI KASEI PHARMA CORPORATION, priority 2009, published 2014).
Where a name gives a salt, the structure may show the parent alone.

What was measured:
[1] = system: nausea and vomiting associated with administration of the test drug; assay: Working Example 2: drugs to treat nausea and vomiting associated with the test drug; conditions: for efficacy against nausea and vomiting associated with the test drug (summary): summary of Table 18
Description: The administration period and efficacy of various drugs to treat nausea and vomiting associated with administration of the test drug were studied.

[2] = in vivo
Description: The ratio of the urinary calcium value/urinary creatine value was compared before beginning administration and in the weeks of observation. The urinary calcium was measured at the start, after 12 weeks, after 24 weeks, after 48 weeks, and after 72 weeks.

[3] = Working Example 1: serum calcium concentration / hypercalcemia; type: in vivo, human
Description: Both the 5 and 100 unit groups were administered two tablets of a calcium agent (containing 500 mg of precipitated calcium carbonate [200 mg as calcium] per tablet) once a day.

[4] = system: osteoporosis patients having normal renal function, mild or moderate renal dysfunction; conditions: in vivo
[5] = in vivo; remark: listed apart in the source
Description: The serum calcium was measured at the start, after 12 weeks, after 24 weeks, after 48 weeks, and after 72 weeks. Serum calcium standard value: 8.4 to 10.4 mg/dL. The standard concomitant drug (610 mg of calcium, 400 IU of vitamin D3, and 30 mg of magnesium) was taken once a day after dinner from the time of consent to the end of the trial.

[6] = conventional daily administration; moderate renal dysfunction; Non-patent Reference 32; cited from earlier work
[7] = 20 μg/day; blood samples 4 to 6 hours after administration; Non-patent Reference 1; cited from earlier work

With CCN(CC)CCNC(=O)c1cc(Cl)c(N)cc1OC [Primperan, metoclopramide] the Effective or ineffective ([1]; Event: Nausea, given Before test drug, listed as Primperan tablet) was “Ineffective” and the “efficacy against nausea and vomiting associated with the test drug (summary)” value (shortened to “efficacy”) [1] was “effective”.

For O=c1[nH]c2ccccc2n1CCCN1CCC(n2c(=O)[nH]c3cc(Cl)ccc32)CC1 [Nauzelin, domperidone], the Effective or ineffective ([1]; Event: Nausea, given Before test drug, taken after breakfast, lunch, and dinner) was “Effective”, the Effective or ineffective ([1]; Event: Vomiting, given Before test drug, taken after breakfast, lunch, and dinner) was “Effective” and the “efficacy” value [1] was “effective”.

In the case of CN1CCN(CCCN2c3ccccc3Sc3ccc(Cl)cc32)CC1.O=C(O)/C=C\C(=O)O.O=C(O)/C=C\C(=O)O [Novamine], the Effective or ineffective ([1]; Event: Nausea, given Before test drug) is reported as “Ineffective”.

For CC[C@H](C)[C@H](NC(=O)[C@H](CCC(=O)O)NC(=O)[C@H](CO)NC(=O)[C@@H](NC(=O)[C@@H](N)CO)C(C)C)C(=O)N[C@@H](CCC(N)=O)C(=O)N[C@@H](CC(C)C)C(=O)N[C@@H](CCSC)C(=O)N[C@@H](Cc1cnc[nH]1)C(=O)N[C@@H](CC(N)=O)C(=O)N[C@@H](CC(C)C)C(=O)NCC(=O)N[C@@H](CCCCN)C(=O)N[C@@H](Cc1cnc[nH]1)C(=O)N[C@@H](CC(C)C)C(=O)N[C@@H](CC(N)=O)C(=O)N[C@@H](CO)C(=O)N[C@@H](CCSC)C(=O)N[C@@H](CCC(=O)O)C(=O)N[C@@H](CCCN=C(N)N)C(=O)N[C@H](C(=O)N[C@@H](CCC(=O)O)C(=O)N[C@@H](Cc1c[nH]c2ccccc12)C(=O)N[C@@H](CC(C)C)C(=O)N[C@@H](CCCN=C(N)N)C(=O)N[C@@H](CCCCN)C(=O)N[C@@H](CCCCN)C(=O)N[C@@H](CC(C)C)C(=O)N[C@@H](CCC(N)=O)C(=O)N[C@@H](CC(=O)O)C(=O)N[C@H](C(=O)N[C@@H](Cc1cnc[nH]1)C(=O)N[C@@H](CC(N)=O)C(=O)N[C@@H](Cc1ccccc1)C(=O)O)C(C)C)C(C)C [teriparatide acetate], the “median percentage change in the urinary calcium value” [2] was −14.7%, the “changes in the serum calcium concentration” value ([3]; 5 or 100 units once a week, high-risk and low-risk patients) was “no tendency for the serum calcium to rise was seen” and the hypercalcemia ([3]; once a week, either dose (5 or 100 units), during the administration period) was “did not cause hypercalcemia”. The “incidence of side effects relative to the control” value [4] was “about twice that of the control”, the “corrected serum calcium value after administration, maximum” value [5] was 11.6 mg/dL and the “corrected serum calcium value after administration, minimum” value [5] was 8.5 mg/dL. For the same molecule, the “corrected serum calcium value, range of the average” value [5] was 9.3 to 9.6 mg/dL, the “corrected serum calcium, test drug groups versus control group” value [5] was “No significant differences could be found” and the “manifestation of hypercalcemia or hypercalciuria” value [5] was “No manifestation of hypercalcemia or hypercalciuria was found”.

For “PTH: parathyroid hormone preparation given daily (20 μg/day) in cited trials, conventional daily administration”, the “osteoporosis patients with serum calcium exceeding 11.0 mg/mL after administration” value [6] is listed as 11.76%, the patients with hypercalcemia [7] is listed as 11% and the “patients with persistent hypercalcemia” value [7] is listed as 3%.

With NC(N)=Nc1nc(CSCCC(N)=NS(N)(=O)=O)cs1 [Gaster D, famotidine] the Effective or ineffective ([1]; Event: Nausea, before or after test drug: Unknown) was “Effective” and the “efficacy” value [1] was “effective”.

With CCOc1cc(N)c(Cl)cc1C(=O)NCC1CN(Cc2ccc(F)cc2)CCO1 (stereo not shown) [Gasmotin, mosapride citrate] the “efficacy” value [1] was “effective”.

In the case of Cc1c(OCC(F)(F)F)ccnc1C[S+]([O-])c1nc2ccccc2[nH]1 (stereo not shown) [Takepron OD, lansoprazole], the “efficacy” value [1] is reported as “effective”.
